# Assay results taken from article PMC7997574, “Lead Optimization of Benzoxazolone Carboxamides as Orally Bioavailable and CNS Penetrant Acid Ceramidase Inhibitors” (Journal of Medicinal Chemistry, 2020).
# Key:
# [1] = molecular target: T1, AC (Homo sapiens, UniProt Q13510); assay: Fluorogenic hAC assay on hAC-enriched lysate of HEK293 cells; type: biochemical; parameters: expressed in transfected cells; conditions: hAC expressed in HEK-293 cells; read-out: hAC IC50 (μM)±SD
# T1 sequence (Q13510 22-395): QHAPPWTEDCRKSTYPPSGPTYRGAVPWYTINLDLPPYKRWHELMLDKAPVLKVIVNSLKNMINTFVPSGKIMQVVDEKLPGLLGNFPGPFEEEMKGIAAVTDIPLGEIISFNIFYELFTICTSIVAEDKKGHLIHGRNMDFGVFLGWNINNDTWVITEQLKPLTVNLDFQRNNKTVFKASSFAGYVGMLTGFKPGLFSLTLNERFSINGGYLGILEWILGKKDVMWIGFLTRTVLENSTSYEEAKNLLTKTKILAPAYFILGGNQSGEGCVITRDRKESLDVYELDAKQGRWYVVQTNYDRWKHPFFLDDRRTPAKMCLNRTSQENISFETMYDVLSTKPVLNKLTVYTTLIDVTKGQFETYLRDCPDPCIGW
# Experimental: HEK293 cells stably expressing hAC were grown in Dulbecco’s modified Eagle medium (DMEM) containing 10% FBS, 1% glutamine, 1 mM sodium pyruvate, and 500 μg mL^–1 G418. Cells were harvested, and pellets were stored at −80 °C until lysosomal-enriched lysate preparation. Cells were suspended in 20 mM Tris HCl (pH 7.5) with 0.32 M sucrose, sonicated, and centrifuged at 800 × g for 30 min at 4 °C. Supernatants were then centrifuged at 12000 × g for 30 min at 4 °C. Pellets were resuspended in PBS (pH 7.4) and subjected to three freeze–thaw cycles at −80 °C. The suspension was finally centrifuged at 105000 × g for 1 h at 4 °C, and protein concentration was measured in the supernatant with the bicinchoninic acid based protein assay. This hAC-enriched preparation allowed us to further optimize the enzymatic assay and to use small amounts of lysate (2 μg per well) at a 5 μM substrate (Rbm14–12) around its KM (KM = 5.0 μM).
# The assay was performed in Optiplate 96-well black plates, with each reaction well containing a mixture of 25 mM NaOAc buffer (pH 4.5) and a fixed amount of protein (2 μg) in a volume of 85 μL. After 10 min of preincubation with test compounds (diluted 20× from DMSO stock solutions at different concentrations), the fluorogenic probe was added (diluted 40× from EtOH stock solution, final concentration 5 μM). After 3 h of incubation at 37 °C, reactions were stopped with 50 μL of MeOH and 100 μL of a 2.5 mg mL^–1 NaIO4 fresh solution in 100 mM glycine/NaOH buffer (pH 10.6). The plates were further incubated for 2 h at 37 °C in the dark, and fluorescence intensities were measured at excitation/emission wavelengths of 355/460 nm. Negative control samples consisted of the same incubation mixture in the absence of protein-enriched extracts. Data were plotted as a function of compound concentrations. IC50 values were calculated by nonlinear regression analysis using GraphPad Prism 5 (GraphPad Software Inc., CA, USA) applying a standard slope curve fitting. The reported IC50 values are the mean of at least three independent experiments performed in three technical replicates.
# [2] = In vitro plasma stability study; type: in vitro ADME; conditions: mouse plasma; read-out: m-plasma t1/2
# Experimental: Freshly prepared 10 mM MeCN stock solution of test compound was diluted 50-fold with DMSO/H2O (1:1) and incubated at 37 °C for 2 h with mouse plasma added in 5% DMSO (preheated at 37 °C for 10 min). The final concentration was 2 μM. At each time point (0, 5, 15, 30, 60, and 120 min), 50 μL of incubation mixture was diluted with 200 μL of cold MeCN spiked with 200 nM internal standard followed by centrifugation at 3300 × g for 20 min. The supernatant was further diluted with H2O (1:1) for analysis. The concentration of test compound was quantified by LC/MS/MS on a Waters ACQUITY UPLC/MS TQD system consisting of a TQD MS equipped with an ESI interface. The analyses were run on an ACQUITY UPLC BEH C18 (50 × 2.1 mm ID, particle size 1.7 μm) with a VanGuard BEH C18 precolumn (5 × 2.1 mm ID, particle size 1.7 μm) at 40 °C. For each compound, the appropriate mobile phase was chosen. ESI was applied in positive mode. The response factors, calculated on the basis of the internal standard peak area, were plotted over time. When possible, response vs time profiles were fitted with Prism (GraphPad Software, Inc., USA) to estimate compound t1/2 in plasma. Values are the mean of at least two independent experiments performed in two technical replicates.
# [3] = Aqueous kinetic solubility assay; type: physicochemical; conditions: PBS, pH 7.4
# Experimental: The aqueous kinetic solubility was determined from a 10 mM MeCN stock solution of test compound in Phosphate-Buffered Saline (PBS) at pH 7.4. The study was performed by incubation of an aliquot of 10 mM MeCN stock solution in PBS (pH 7.4) at a target concentration of 250 μM. The incubation was carried out under shaking at 25 °C for 1 h followed by centrifugation at 21100 × g for 30 min. The supernatant was analyzed by UPLC/MS for the quantification of the dissolved compound (in μM) by UV at a specific wavelength (215 nm). […] The UPLC/MS analyses were performed on a Waters ACQUITY UPLC/MS system consisting of a single quadrupole detector (SQD) Mass Spectrometer (MS) equipped with an Electrospray Ionization (ESI) interface and a Photodiode Array Detector (PDA). The PDA range was 210–400 nm. ESI in positive mode was used in the mass scan range of 100–650 Da. The analyses were run on an ACQUITY UPLC BEH C18 column (50 × 2.1 mm ID, particle size 1.7 μm) with a VanGuard BEH C18 precolumn (5 × 2.1 mm ID, particle size 1.7 μm), using 10 mM NH4OAc in H2O at pH 5 adjusted with AcOH (A) and 10 mM NH4OAc in MeCN/H2O (95:5) at pH 5 (B) as the mobile phase. Values are reported as mean values of ≥2 experiments performed.
# [4] = In vitro microsomal stability study; type: in vitro ADME; conditions: mouse liver microsomes; for m-LM [% at 60 min]: % remaining at 60 min; for half-life at 4.6 μM / half-life at 1 h, 4.6 µM: pH 7.4, read-out: m-LM t1/2
# Experimental: Freshly prepared 10 mM MeCN stock solution of test compound was preincubated at 37 °C for 15 min with mouse liver microsomes added in 0.1 M Tris HCl buffer (pH 7.4). The final concentration was 4.6 μM. After preincubation, the cofactors (NADPH, G6P, G6PDH, and MgCl2 predissolved in 0.1 M Tris HCl) were added to the incubation mixture, and the incubation was continued at 37 °C for 1 h. At each time point (0, 5, 15, 30, and 60 min), 30 μL of incubation mixture was diluted with 200 μL of cold MeCN spiked with 200 nM internal standard followed by centrifugation at 3300 × g for 15 min. The supernatant was further diluted with H2O (1:1) for analysis. The concentration of the test compound was quantified by LC/MS/MS on a Waters ACQUITY UPLC/MS TQD system consisting of a TQD MS equipped with an ESI interface. The analyses were run on an ACQUITY UPLC BEH C18 (50 × 2.1 mm ID, particle size 1.7 μm) with a VanGuard BEH C18 precolumn (5 × 2.1 mm ID, particle size 1.7 μm) at 40 °C. For each compound, the appropriate mobile phase was chosen. ESI was applied in positive mode. The percentage of test compound remaining at each time point relative to t = 0 was calculated. t1/2 was determined by a one-phase decay equation using a nonlinear regression of compound concentration vs time. Values are the mean of at least two independent experiments performed in two technical replicates.
IC50 [1] [µM],half-life at 2 µM [2] [min],solubility at 1 h [3] [µM],m-LM [% at 60 min] [4],half-life at 4.6 μM [4] [min],"half-life at 1 h, 4.6 µM [4] [min]",half-life at 2 μM [2] [min],SMILES
0.134 ± 0.014,60,150,70%,> 60,–,–,"Cl.O=C(NCCCCc1ccccc1)n1c(=O)oc2cc(C3CCNCC3)ccc21 [22d, 2-Oxo-N-(4-phenylbutyl)-6-(4-piperidyl)-1,3-benzoxazole-3-carboxamide Hydrochloride]"
0.129 ± 0.008,50,120,–,–,40,–,"CN1CCC(c2ccc3c(c2)oc(=O)n3C(=O)NCCCCc2ccccc2)CC1 [22e, 6-(1-Methyl-4-piperidyl)-2-oxo-N-(4-phenylbutyl)-1,3-benzoxazole-3-carboxamide]"
0.092 ± 0.043,50,198,–,–,60,–,"CCN1CCC(c2ccc3c(c2)oc(=O)n3C(=O)NCCCCc2ccccc2)CC1 [22f, 6-(1-Ethyl-4-piperidyl)-2-oxo-N-(4-phenylbutyl)-1,3-benzoxazole-3-carboxamide]"
0.094 ± 0.042,40,50,–,–,60,–,"CC(C)N1CCC(c2ccc3c(c2)oc(=O)n3C(=O)NCCCCc2ccccc2)CC1 [22g, 6-(1-Isopropyl-4-piperidyl)-2-oxo-N-(4-phenylbutyl)-1,3-benzoxazole-3-carboxamide]"
0.12 ± 0.03,–,< 1,–,60,–,60,"CC(C)CN1CCC(c2ccc3c(c2)oc(=O)n3C(=O)NCCCCc2ccccc2)CC1 [22h, 6-(1-Isobutyl-4-piperidyl)-2-oxo-N-(4-phenylbutyl)-1,3-benzoxazole-3-carboxamide]"
0.064 ± 0.029,30,< 1,–,–,60,–,"CC(=O)N1CCC(c2ccc3c(c2)oc(=O)n3C(=O)NCCCCc2ccccc2)CC1 [22i, 6-(1-Acetyl-4-piperidyl)-2-oxo-N-(4-phenylbutyl)-1,3-benzoxazole-3-carboxamide]"
0.215 ± 0.013,40,73,–,–,30,–,"CN1CCC(c2ccc3c(c2)oc(=O)n3C(=O)NCCOCc2ccccc2)CC1 [22j, N-(2-Benzyloxyethyl)-6-(1-methyl-4-piperidyl)-2-oxo-1,3-benzoxazole-3-carboxamide]"
0.396 ± 0.075,75,240,>60 [60%],> 60,–,> 60,"CCCCCNC(=O)n1c(=O)oc2cc(C3CCN(C)CC3)ccc21 [22k, 6-(1-Methyl-4-piperidyl)-2-oxo-N-pentyl-1,3-benzoxazole-3-carboxamide]"
0.094 ± 0.03,20,22,–,–,30,–,"CN1CCC(c2ccc3c(c2)oc(=O)n3C(=O)NCCCCc2ccc(F)cc2)CC1 [22o, N-[4-(4-Fluorophenyl)butyl]-6-(1-methyl-4-piperidyl)-2-oxo-1,3-benzoxazole-3-carboxamide]"
0.024 ± 0.002,20,70,70%,> 60,–,–,"CN1CCC(c2cc3oc(=O)n(C(=O)NCCCCc4ccccc4)c3cc2F)CC1 [22p, 5-Fluoro-6-(1-methyl-4-piperidyl)-2-oxo-N-(4-phenylbutyl)-1,3-benzoxazole-3-carboxamide]"
0.105 ± 0.055,36,20,–,–,35,–,"CN1CCC(c2ccc3c(c2)oc(=O)n3C(=O)NCCCCc2ccccc2)CC1=O (stereo not drawn) [22q, 6-(1-Methyl-2-oxo-4-piperidyl)-2-oxo-N-(4-phenylbutyl)-1,3-benzoxazole-3-carboxamide]"
0.095 ± 0.03,50,< 1,–,–,20,–,"O=C(NCCCCc1ccccc1)n1c(=O)oc2cc(C3CCN(CC(F)F)CC3)ccc21 [22r, 6-[1-(2,2-Difluoroethyl)-4-piperidyl]-2-oxo-N-(4-phenylbutyl)-1,3-benzoxazole-3-carboxamide]"
0.363 ± 0.18,30,20,–,–,45,–,"Cl.O=C(NCCCCc1ccccc1)n1c(=O)oc2cc(N3CCNCC3)ccc21 [23e, 2-Oxo-N-(4-phenylbutyl)-6-piperazin-1-yl-1,3-benzoxazole-3-carboxamide Hydrochloride]"
0.116 ± 0.069,–,< 1,–,< 5,–,< 5,"CN1CCN(c2ccc3c(c2)oc(=O)n3C(=O)NCCCCc2ccccc2)CC1 [23f, 6-(4-Methylpiperazin-1-yl)-2-oxo-N-(4-phenylbutyl)-1,3-benzoxazole-3-carboxamide]"
